Test results taken from ChEMBL document CHEMBL3217459, “3-Diarylethyne quinazolinones: a new class of senescence inducers” (Medchemcomm, 2013).
Calls of active or inactive are those of the source. No cut-off for these calls is given here.

Legend:
MCF7 [1] = experiment: Induction of DNA damage in human MCF7 cells assessed as decrease in TRF2 level measured at 4 uM after 24 hrs by Western blot analysis; assay type: functional, cell-based
[2] = Cytotoxicity against human MCF10A cells assessed as cell viability after 48 hrs by MTT assay; assay type: cell-based; settings: MCF-10A
MCF7 [3] = experiment: Induction of senescence in human MCF7 cells assessed as decrease in SKP2 expression at 4 uM after 24 hrs by Western blot analysis; assay type: functional, cell-based
[4] = target: Telomerase reverse transcriptase (Homo sapiens) (UniProt O14746); experiment: Inhibition of telomerase activity in human MCF7 cells assessed as un-repairable DNA damage at 4 uM after 24 hrs; assay type: cell-based
[5] = Cytotoxicity against human MIAPaCa2 cells assessed as cell viability after 48 hrs by MTT assay; assay type: functional, cell-based; settings: MIA PaCa-2, 48 h
MCF7 [6] = experiment: Induction of senescence in human MCF7 cells assessed as increase in p21 expression at 4 uM after 24 hrs by Western blot analysis; assay type: functional, cell-based
MCF7 (Homo sapiens) = experiment: Induction of senescence in human MCF7 cells assessed as increase in p16 expression at 4 uM after 24 hrs by Western blot analysis
HCT-116 [7] = experiment: Induction of senescence in human HCT116 cells assessed as increase in p16 expression at 4 uM after 24 hrs by Western blot analysis; assay type: functional, cell-based
MCF7 [8] = experiment: Cell cycle arrest in human MCF7 cells assessed as accumulation at G2/M phase at 4 uM after 24 hrs using propidium iodide staining by FACS analysis (reference value: 19%); assay type: functional
A549 = experiment: Cytotoxicity against human A549 cells assessed as cell viability after 48 hrs by MTT assay; assay type: functional, cell-based; settings: A549, 48 h
MCF7 [9] = experiment: Cytotoxicity against human MCF7 cells assessed as cell viability at 4 uM after 48 hrs by MTT assay; assay type: functional
MCF7 [10] = experiment: Induction of DNA damage in human MCF7 cells assessed as increase in TRF1 level measured at 4 uM after 24 hrs by Western blot analysis; assay type: functional, cell-based
MCF7 [11] = experiment: Induction of senescence in human MCF7 cells assessed as increase in p53 expression at 4 uM after 24 hrs by Western blot analysis; assay type: functional, cell-based
MCF7 [12] = experiment: Cytotoxicity against human MCF7 cells assessed as cell viability after 48 hrs by MTT assay; assay type: functional, cell-based; settings: MCF7, 48 h
MCF7 [13] = experiment: Induction of DNA damage in human MCF7 cells assessed as increase in gamma H2AX level measured at 4 uM after 24 hrs by Western blot analysis; assay type: functional, cell-based
MCF7 [14] = experiment: Cell cycle arrest in human MCF7 cells assessed as accumulation at G1 phase at 4 uM after 24 hrs using propidium iodide staining by FACS analysis (reference value: 70%); assay type: functional
MDA-MB-231 [15] = experiment: Cytotoxicity against human MDA-MB-231 cells assessed as cell viability after 48 hrs by MTT assay; assay type: functional, cell-based; settings: MDA-MB-231, 48 h
COLO 205 = experiment: Cytotoxicity against human COLO205 cells assessed as cell viability after 48 hrs by MTT assay; assay type: functional, cell-based; settings: COLO 205, 48 h
MCF7 [16] = experiment: Induction of DNA damage in human MCF7 cells assessed as increase in POT1 level measured at 4 uM after 24 hrs by Western blot analysis; assay type: functional, cell-based
MCF7 [17] = experiment: Cell cycle arrest in human MCF7 cells assessed as accumulation at S phase at 4 uM after 24 hrs using propidium iodide staining by FACS analysis (reference value: 11%); assay type: functional
SW116 = experiment: Induction of senescence in human SW116 cells assessed as increase in p21 expression at 4 uM after 24 hrs by Western blot analysis; assay type: functional, cell-based
HCT-116 [18] = experiment: Induction of senescence in human HCT116 cells assessed as increase in p21 expression at 4 uM after 24 hrs by Western blot analysis; assay type: functional, cell-based
MCF7 [19] = experiment: Induction of senescence in human MCF7 cells assessed as increase in p16 expression at 4 uM after 24 hrs by Western blot analysis; assay type: functional, cell-based
MCF7 [20] = experiment: Cytotoxicity against human MCF7 cells assessed as cell viability at 2 uM after 48 hrs by MTT assay; assay type: functional
MCF7 [21] = experiment: Induction of senescence in human MCF7 cells assessed as blue colotation and adopted a flattened morphology with spread out cytoplasm at 4 uM after 72 hrs by SA-beta-gal assay; assay type: functional, cell-based
[22] = target: Telomerase reverse transcriptase (Homo sapiens) (UniProt O14746); experiment: Inhibition of telomerase activity in human A549 cells at 4 uM after 24 hrs by TRAP eze XL telomerase assay
MDA-MB-231 [23] = experiment: Induction of senescence in human MDA-MB-231 cells expressing mutant p53 at 4 uM after 24 hrs by Western blot analysis; assay type: functional, cell-based
MCF7 [24] = experiment: Induction of senescence in human MCF7 cells expressing wild type p53 at 4 uM after 24 hrs by Western blot analysis; assay type: functional, cell-based

Chain of Telomerase reverse transcriptase (Homo sapiens) (O14746 whole entry): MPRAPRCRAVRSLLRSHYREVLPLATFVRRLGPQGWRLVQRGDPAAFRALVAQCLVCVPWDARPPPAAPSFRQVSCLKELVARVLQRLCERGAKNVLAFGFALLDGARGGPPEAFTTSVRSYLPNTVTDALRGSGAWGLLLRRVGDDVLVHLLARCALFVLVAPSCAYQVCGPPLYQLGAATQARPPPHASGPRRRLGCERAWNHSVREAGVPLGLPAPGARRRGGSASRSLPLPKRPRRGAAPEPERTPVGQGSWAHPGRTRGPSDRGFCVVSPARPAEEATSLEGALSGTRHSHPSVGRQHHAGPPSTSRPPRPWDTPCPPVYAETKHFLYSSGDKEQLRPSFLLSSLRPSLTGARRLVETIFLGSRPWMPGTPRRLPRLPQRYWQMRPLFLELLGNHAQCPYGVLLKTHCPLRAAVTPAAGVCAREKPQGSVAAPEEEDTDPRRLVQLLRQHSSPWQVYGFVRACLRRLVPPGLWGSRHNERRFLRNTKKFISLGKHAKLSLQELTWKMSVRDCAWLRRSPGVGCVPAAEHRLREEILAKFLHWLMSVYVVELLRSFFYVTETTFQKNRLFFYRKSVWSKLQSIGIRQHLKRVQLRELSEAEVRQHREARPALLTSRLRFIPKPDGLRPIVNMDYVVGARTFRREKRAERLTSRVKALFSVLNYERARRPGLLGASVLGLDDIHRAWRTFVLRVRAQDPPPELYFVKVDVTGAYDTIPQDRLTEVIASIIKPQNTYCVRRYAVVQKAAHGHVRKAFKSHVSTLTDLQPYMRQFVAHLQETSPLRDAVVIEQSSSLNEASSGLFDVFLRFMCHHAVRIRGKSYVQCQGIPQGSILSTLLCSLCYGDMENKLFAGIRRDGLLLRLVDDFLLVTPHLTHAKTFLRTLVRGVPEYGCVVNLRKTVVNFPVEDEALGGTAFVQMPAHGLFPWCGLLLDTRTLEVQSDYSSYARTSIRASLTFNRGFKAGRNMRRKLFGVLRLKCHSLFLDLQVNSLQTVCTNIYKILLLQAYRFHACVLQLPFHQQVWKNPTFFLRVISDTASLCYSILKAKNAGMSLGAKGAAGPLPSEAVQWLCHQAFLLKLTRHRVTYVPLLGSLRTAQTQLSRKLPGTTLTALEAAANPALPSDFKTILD

| SMILES | inhibition (MCF7 [1]) | IC50 [2] | inhibition (MCF7 [3]) | inhibition [4] | IC50 [5] | Activity (MCF7 [6]) | Activity (MCF7 (Homo sapiens)) | Activity (HCT-116 [7]) | Activity (MCF7 [8]) | IC50 (A549) | OD (MCF7 [9]) | Activity (MCF7 [10]) | Activity (MCF7 [11]) | IC50 (MCF7 [12]) | Activity (MCF7 [13]) | Activity (MCF7 [14]) | IC50 (MDA-MB-231 [15]) | IC50 (COLO 205) | Activity (MCF7 [16]) | Activity (MCF7 [17]) | further results |
| --- | --- | --- | --- | --- | --- | --- | --- | --- | --- | --- | --- | --- | --- | --- | --- | --- | --- | --- | --- | --- | --- |
| COc1ccc(/C=C/c2nc3ccccc3c(=O)n2-c2ccc(C#Cc3ccc(C(C)(C)C)cc3)cc2C)cc1O | Active | 12 µM | Active | Active | 6.8 µM | Active | Active | Active | 5% | 5.74 µM | 0.27 | Active | Active | 3.88 µM | Active | 91% | 5.69 µM | 5.19 µM | Active | 4% | Activity (SW116): Active; Activity (HCT-116 [18]): Active; Activity (MCF7 [19]): Active; OD (MCF7 [20]): 0.84 |
| COc1ccc(/C=C/c2nc3ccccc3c(=O)n2-c2ccc(C#Cc3ccc(C(C)(C)C)cc3)cc2C)cc1OC | Active | 13 µM | Active | Active | 5.89 µM | Active | Active | Active | 6% | 6.15 µM | 0.27 | Active | Active | 2.72 µM | Active | 91% | 5.84 µM | 5.68 µM | Active | 3% | Activity (SW116): Active; Activity (HCT-116 [18]): Active; Activity (MCF7 [19]): Active; OD (MCF7 [20]): 0.41 |
| Cc1cc(C#Cc2ccc(C(C)(C)C)cc2)ccc1-n1c(/C=C/c2c(Cl)cccc2Cl)nc2ccccc2c1=O | Active | 15 µM | Active | Active | 5.29 µM | Active | Active | Active | 5% | 5.6 µM | 0.39 | Active | Active | 2.27 µM | Active | 93% | 5.44 µM | 4.85 µM | Active | 2% | Activity (MCF7 [21]): Active; inhibition [22]: Active; Activity (MDA-MB-231 [23]): inactive; Activity (SW116): Active; Activity (MCF7 [24]): Active; Activity (HCT-116 [18]): Active; Activity (MCF7 [19]): Active; OD (MCF7 [20]): 0.77 |
